# Test results published in the supplement of paper PMC10307832.
# Legend:
# Experiment in all cases: relative viability (nuclei count vs DMSO), 5 days (fraction); higher = more cells survive
# BEN = tested on: BEN
# Method in brief: (§1)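 Cells from lung cancer lines were seeded into 1536-well plates and, one day later, dosed by pin tool. Treatments were either a single drug or a fixed dose of an anchor drug with five library-drug doses (not always all listed) in √10 steps. After 5 days, nuclei were stained in a one-step fixation (final 0.05% Triton X-100, 1% formaldehyde, 1 ug/ml Hoechst) and counted on 4× images, and relative viability is the treated-to-vehicle nuclei ratio, as the median of duplicate plates.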
# CAL-12T = tested on: CAL-12T
# Method in brief: as §1
# COR-L23 = tested on: COR-L23
# Method in brief: as §1
# HCC-44 = tested on: HCC-44
# Method in brief: as §1
# LU99A = tested on: LU99A
# Method in brief: as §1
# LXF-289 = tested on: LXF-289
# Method in brief: as §1
# NCI-H1355 = tested on: NCI-H1355
# Method in brief: as §1
# NCI-H1437 = tested on: NCI-H1437
# Method in brief: as §1
# NCI-H1563 = tested on: NCI-H1563
# Method in brief: as §1
# NCI-H1650 = tested on: NCI-H1650
# Method in brief: as §1
# NCI-H1651 = tested on: NCI-H1651
# Method in brief: as §1
# NCI-H1666 = tested on: NCI-H1666
# Method in brief: as §1
# NCI-H1755 = tested on: NCI-H1755
# Method in brief: as §1
# NCI-H1792 = tested on: NCI-H1792
# Method in brief: as §1
# NCI-H1993 = tested on: NCI-H1993
# Method in brief: as §1
# NCI-H2085 = tested on: NCI-H2085
# Method in brief: as §1
# NCI-H2087 = tested on: NCI-H2087
# Method in brief: as §1
# NCI-H460 = tested on: NCI-H460
# Method in brief: as §1
# NCI-H520 = tested on: NCI-H520
# Method in brief: as §1
# PC-14 = tested on: PC-14
# Method in brief: as §1
structure (smiles),measurement,setting,value
Nc1cccc2c1CN(C1CCC(=O)NC1=O)C2=O (centres undefined) [Lenalidomide] + CC(C)C[C@H](NC(=O)[C@H](Cc1ccccc1)NC(=O)c1cnccn1)B(O)O [Bortezomib] (partner 0.002 µM),relative viability,BEN; first compound 0.253 µM,1.04
same,relative viability,BEN; first compound 0.8 µM,0.505
same,relative viability,BEN; first compound 2.53 µM,1.02
same,relative viability,BEN; first compound 8 µM,0.524
same,relative viability,CAL-12T; first compound 0.253 µM,0.988
same,relative viability,CAL-12T; first compound 2.53 µM,1.14
same,relative viability,CAL-12T; first compound 8 µM,0.965
same,relative viability,COR-L23; first compound 0.253 µM,0.994
same,relative viability,COR-L23; first compound 0.8 µM,1.11
same,relative viability,COR-L23; first compound 2.53 µM,1.07
same,relative viability,COR-L23; first compound 8 µM,1.17
same,relative viability,HCC-44; first compound 0.253 µM,0.904
same,relative viability,HCC-44; first compound 0.8 µM,0.701
same,relative viability,HCC-44; first compound 2.53 µM,0.912
same,relative viability,HCC-44; first compound 8 µM,0.832
same,relative viability,LU99A; first compound 0.253 µM,1.06
same,relative viability,LU99A; first compound 0.8 µM,1.11
same,relative viability,LU99A; first compound 2.53 µM,1.05
same,relative viability,LU99A; first compound 8 µM,0.73
same,relative viability,LXF-289; first compound 0.253 µM,0.958
same,relative viability,LXF-289; first compound 0.8 µM,0.98
same,relative viability,LXF-289; first compound 2.53 µM,1.07
same,relative viability,LXF-289; first compound 8 µM,1.08
same,relative viability,NCI-H1355; first compound 0.253 µM,1.23
same,relative viability,NCI-H1355; first compound 0.8 µM,0.426
same,relative viability,NCI-H1355; first compound 2.53 µM,1.29
same,relative viability,NCI-H1355; first compound 8 µM,1.03
same,relative viability,NCI-H1437; first compound 0.253 µM,0.523
same,relative viability,NCI-H1437; first compound 0.8 µM,0.571
same,relative viability,NCI-H1437; first compound 2.53 µM,0.95
same,relative viability,NCI-H1437; first compound 8 µM,0.501
same,relative viability,NCI-H1563; first compound 0.253 µM,0.807
same,relative viability,NCI-H1563; first compound 0.8 µM,0.846
same,relative viability,NCI-H1563; first compound 2.53 µM,0.887
same,relative viability,NCI-H1563; first compound 8 µM,0.748
same,relative viability,NCI-H1650; first compound 0.253 µM,0.197
same,relative viability,NCI-H1650; first compound 0.8 µM,0.189
same,relative viability,NCI-H1650; first compound 2.53 µM,0.213
same,relative viability,NCI-H1650; first compound 8 µM,0.198
same,relative viability,NCI-H1651; first compound 0.253 µM,0.923
same,relative viability,NCI-H1651; first compound 0.8 µM,0.728
same,relative viability,NCI-H1651; first compound 2.53 µM,1.05
same,relative viability,NCI-H1651; first compound 8 µM,0.772
same,relative viability,NCI-H1666; first compound 0.253 µM,0.816
same,relative viability,NCI-H1666; first compound 0.8 µM,0.544
same,relative viability,NCI-H1666; first compound 2.53 µM,0.813
same,relative viability,NCI-H1666; first compound 8 µM,0.762
same,relative viability,NCI-H1755; first compound 0.253 µM,0.855
same,relative viability,NCI-H1755; first compound 0.8 µM,0.854
same,relative viability,NCI-H1755; first compound 2.53 µM,0.947
same,relative viability,NCI-H1755; first compound 8 µM,0.913
same,relative viability,NCI-H1792; first compound 0.253 µM,1
same,relative viability,NCI-H1792; first compound 0.8 µM,0.773
same,relative viability,NCI-H1792; first compound 2.53 µM,0.96
same,relative viability,NCI-H1792; first compound 8 µM,0.964
same,relative viability,NCI-H1993; first compound 0.253 µM,1.07
same,relative viability,NCI-H1993; first compound 0.8 µM,0.951
same,relative viability,NCI-H1993; first compound 2.53 µM,1.12
same,relative viability,NCI-H1993; first compound 8 µM,0.675
same,relative viability,NCI-H2085; first compound 0.253 µM,1.05
same,relative viability,NCI-H2085; first compound 0.8 µM,0.818
same,relative viability,NCI-H2085; first compound 2.53 µM,1.11
same,relative viability,NCI-H2085; first compound 8 µM,0.881
same,relative viability,NCI-H2087; first compound 0.253 µM,0.772
same,relative viability,NCI-H2087; first compound 0.8 µM,0.656
same,relative viability,NCI-H2087; first compound 2.53 µM,0.922
same,relative viability,NCI-H2087; first compound 8 µM,0.835
same,relative viability,NCI-H460; first compound 0.253 µM,1.16
same,relative viability,NCI-H460; first compound 0.8 µM,1.1
same,relative viability,NCI-H460; first compound 2.53 µM,1.7
same,relative viability,NCI-H460; first compound 8 µM,1.07
same,relative viability,NCI-H520; first compound 0.253 µM,0.529
same,relative viability,NCI-H520; first compound 0.8 µM,0.933
same,relative viability,NCI-H520; first compound 2.53 µM,0.984
same,relative viability,NCI-H520; first compound 8 µM,0.365
same,relative viability,PC-14; first compound 0.253 µM,0.779
same,relative viability,PC-14; first compound 0.8 µM,0.802
same,relative viability,PC-14; first compound 2.53 µM,0.905
same,relative viability,PC-14; first compound 8 µM,0.854
